From paper PMC9975495, “Unveiling the therapeutic potential of cabozantinib-loaded poly D,L-lactic-co-glycolic acid and polysarcosine nanoparticles in inducing apoptosis and cytotoxicity in human HepG2 hepatocellular carcinoma cell lines and in vivo anti-tumor activity in SCID female mice” (Frontiers in Oncology, 2023)

Legend:
[1] = Pharmacokinetic study, plasma by RP-HPLC; format: in vivo, Male Albino Wister rats; conditions: rats, 20 mg/kg intravenous
Procedure: 06 Male Albino Wister rats (200 to 250 g) are separated into two groups (n=3) for the purpose of conducting pharmacokinetic studies ([55]). For up to 72 hours, a comparative plasma concentration-time profile of Cabozantinib (CNB), CNB-PLGA-PSar-NPs was analysed. […] Using the tail vein of rats, 500µL of blood samples were collected at 0, 0.5, 1, 2, 4, 8, 16, 24, 48, and 72 hours from three animals in each group. Blood samples were stored in a microcentrifuge tube and centrifuged at 7,500 rpm for 30 minutes at 25°C to separate supernatant plasma. The collected samples were analysed using the RP-HPLC system and stored at -80°C (1290 Infinity II LC System, Agilent, USA). Using kinetica 5.0 pharmacokinetics software, the obtained RP-HPLC variables were interpreted in terms of their pharmacokinetics (Thermo Fisher Scientific, Yokohama)

[2] = Tissue distribution studies; format: in vivo, SCID mice; conditions: 20 mg/kg i.v. bolus, killed eight hours later
Excerpt: Tissue distribution studies in mice with SCID are required in anti-liver cancer activity to determine the distribution and concentration of a drug within the body after administration ([54]). This information is important for understanding how the drug is metabolized and cleared by the body, as well as for determining appropriate dosing regimens. Additionally, tissue distribution studies can help to identify any potential toxicities or side effects associated with the drug in specific organs or tissues. In the case of anti-liver cancer activity, knowing the distribution of the drug in the liver would be particularly important to ensure the drug is reaching its target site and effectively inhibiting the growth of cancer cells. The tissue distribution of a bolus dosage of 20 mg/kg i.v. Cabozantinib (CNB), CNB-PLGA-PSar-NPs was documented. The greatest concentration of CNB was found in liver parenchymal hepatocyte tissue. […] The increased affinity of CNB in the liver and pancreas enables the medication molecule to effectively treat liver cancer.
The tissue distribution was studied by separating 18 SCID mice into three groups (each group had six mice). The drug and its Nano formulations were administered intravenously (i.v.) at a bolus dose of 20 mg/kg. Groups of mice were given a dosage and then killed eight hours later. […] The samples were analysed using RP-UHPLC (Dionex Ultimate, 3000). […]

[3] = tested on: HePG2 cells Xenograft model; test: In vivo anti-tumour efficacy study, HePG2 xenograft; parameters: species or system SCID female mice; conditions: 20 mg/kg i.v. once weekly, 21 days
Procedure: The SCID female mice of 8-10 weeks old were used in the in vivo effectiveness study ([53]). SCID stands for severe combined immunodeficiency disorder. Mice were housed in individually ventilated cages with pelleted food, a 12-hour/12-hour dark-light cycle, and unrestricted access to water (supplied ad libitum) in a climate-controlled setting with a temperature range of 25°C ± 3°C. The National Institutes of Health's guidelines for the care and use of animals were followed when conducting all animal experiments, which included those at Animal House of […], India. These facilities also complied with CPCSEA (Committee for the Purpose of Control and Supervision of Experiments on Animals) regulations. Mice were subcutaneously injected with cultured HePG2 cells (5x10^6 cells) in 200μL of RPMI 1640 with 33% Corning Matrigel Basement Membrane Matrix (Sigma-Aldrich, India). […] A digital electronic calliper was used to measure the tumor's size twice a week. To assess toxicity, body weight was monitored twice weekly. Tumour volume was calculated as […]. The SCID female mice were given thiopental anaesthesia prior to being killed by cervical dislocation. Before being implanted in paraffin wax, liver tissues and tumour bulbs from the descending liver were collected and preserved overnight in 10% formalin (CH2O) with a pH 7.4 phosphate buffer solution.

erythrocytes = test: Erythrocyte membrane integrity by lactate dehydrogenase release; format: cell-based, human; conditions: erythrocyte suspension, 10, 50 and 100 µg/mL, 8 hours
Procedure: Erythrocytes produce lactate dehydrogenase (LDH), which may be measured photometrically using the LDH test kit/Lactate Dehydrogenase Assay Kit (Colorimetric) (ab102526) ([50]). For the LDH investigation, blood was obtained from the neighbouring blood bank. The erythrocyte suspension was made according to the methodology described in our earlier research. In 1mL of erythrocyte solution was treated with specific amount of Cabozantinib (CNB), PLGA-PSar-encapsulated Cabozantinib nanoparticles (CNB-PLGA-PSar-NPs), and placebo (PLGA-PSar-NPs) ([51]). Positive control sample was created by diluting erythrocyte suspension with 1% Triton-X-100, whereas negative control sample was created by diluting erythrocyte suspension with normal saline solution. […] LDH was detected at 500nm after a ready-to-use LDH solution was added to the supernatant. The total of LDH was calculated using the following formula. […]
Where, A sample stands for Cabozantinib, PLGA-PSar-encapsulated Cabozantinib nanoparticles (CNB-PLGA-PSar-NPs) incubated erythrocytes absorbance, A negative control indicates, erythrocytes absorbance of sample, which was pre-treated with normal saline solution. The A standard indicates the absorbance of erythrocytes sustention, which were pre-treated with 150/UL Lactate dehydrogenase (LDH) enzyme. […]

Hep Par 1 = test: Immunohistochemistry of xenograft tumour sections; format: in vivo, SCID female mice; conditions: five 400 µm × 400 µm zones
Procedure: Paraffin 10µm thick sections of xenograft HePG2 cancer cell tissues embedded in liver parenchyma blocks. The blocks were […] in a 10 mM citrate buffer solution and autoclaved for 20 minutes to extract antigens. After heating the section slide blocks, they were allowed to cool for 1.5 hours at room temperature. The sectioned slides were then incubated overnight at 4°C with a primary antibody against Hepatocyte specific antigen (Hep Par 1) (91091816- SK-HEP-1, Sigma-Aldrich, Bengaluru, India). Further, section slides were incubated with enzyme-linked immunosorbent assay (ELISA) horseradish peroxidase (HRP) conjugated Goat anti-Rabbit IgG (H+L) secondary antibody (Thermo Fisher Scientific, Vadodara, Gujarat) for 1hr followed by treatment with 120µL […] (Dako). For analysing the results of Immunohistochemistry, five square zones […] were measured and averaged for the number of stained cells in each sectioned slide. Using GraphPad Prism 9 (San Diego, California) and student t-test statistical analyses were performed.

[4] = male, Albino Wister, rat, plasma

Row | Compound | C0 [1, 4] [ng/mL] | Cmax [1, 4] [ng/mL] | MRT [1, 4] [h] | Vd [1, 4] [L] | clearance [1, 4] [mL/min] | t1/2 [1] [h] | tissue distribution [2] | reduction in the size of the tumour compared to the vehicle control [3] [%] | LDH release / erythrocyte membrane integrity (erythrocytes) | Hep Par 1 labelling index (Hep Par 1)
1 | COc1cc2nccc(Oc3ccc(NC(=O)C4(C(=O)Nc5ccc(F)cc5)CC4)cc3)c2cc1OC [CNB, Cabozantinib] | 215 ± 16.3 | 241 ± 34.2 | 7.45 ± 0.24 | 1.522 ± 0.00154 | 2.08 | 5.21 ± 0.18 | more widely distributed in the parenchymal hepatocyte tissue | 60.3 | would not alter the integrity of erythrocyte membranes | 9.22 ± 1.67
2 | Triton X 100 |  |  |  |  |  |  |  |  | exceptionally significant LDH release | 
